Measurements taken from ChEMBL document CHEMBL2364335, “Structure-activity relationship data for chemical series of achiral agonists of the ghrelin (growth hormone secretagogue) receptor (Supplementary Bioactivity Data for publication CHEMBL1140573)”.

Target: Growth hormone secretagogue receptor type 1 (Homo sapiens, UniProt Q92847)
Test: SUPPLEMENTARY: Agonist activity at GSHR by FLIPR assay. Same assay as CHEMBL941945
Format: functional

Sequence of Growth hormone secretagogue receptor type 1 (Q92847 whole entry): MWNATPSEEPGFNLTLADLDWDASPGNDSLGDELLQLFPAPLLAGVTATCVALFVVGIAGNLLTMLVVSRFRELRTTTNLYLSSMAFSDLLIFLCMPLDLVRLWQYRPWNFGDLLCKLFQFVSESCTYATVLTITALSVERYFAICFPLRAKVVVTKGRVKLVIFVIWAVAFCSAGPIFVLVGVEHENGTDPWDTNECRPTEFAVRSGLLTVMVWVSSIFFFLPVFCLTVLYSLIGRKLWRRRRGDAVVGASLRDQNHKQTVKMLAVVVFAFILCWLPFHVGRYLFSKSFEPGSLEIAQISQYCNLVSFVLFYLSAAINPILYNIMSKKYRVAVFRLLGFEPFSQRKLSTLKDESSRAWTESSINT

Compound | EC50 [nM]
COc1ccc(NS(=O)(=O)c2ccc(-c3cccs3)cc2C)cc1N1C[C@@H](C)N[C@@H](C)C1 | 1
COc1ccc(N2C[C@@H](C)N[C@@H](C)C2)cc1NS(=O)(=O)c1cccc(-c2ccoc2)c1 | 39.8
C[C@@H]1CN(c2cc(NS(=O)(=O)c3ccc(-c4cccs4)cc3)ccc2C#N)C[C@H](C)N1 | 100
COc1ccc(N2C[C@@H](C)N[C@@H](C)C2)cc1NS(=O)(=O)c1ccc2c(c1)CCC(C)(C)O2 | 31.6
COc1ccc(N2C[C@@H](C)N[C@@H](C)C2)cc1NS(=O)(=O)c1ccc(-c2cc(C)cs2)cc1C | 0.398
COc1ccc(NS(=O)(=O)c2ccc3ccccc3c2)cc1N1C[C@@H](C)N[C@@H](C)C1 | 15.8
COc1ccc(N2C[C@@H](C)N[C@@H](C)C2)cc1NS(=O)(=O)c1ccc(-c2ccccc2Cl)s1 | 2.51
C[C@@H]1CN(c2ccc(O)c(NS(=O)(=O)c3ccc(-c4ccccc4F)s3)c2)C[C@H](C)N1 | 6.31
COc1ccc(N2C[C@@H](C)N[C@@H](C)C2)cc1NS(=O)(=O)c1cccc2cccnc12 | 50.1
COc1ccc(N2C[C@@H](C)N[C@@H](C)C2)cc1NS(=O)(=O)c1ccc(-c2nccs2)cc1 | 12.6
COc1ccc(N2C[C@@H](C)N[C@@H](C)C2)cc1NS(=O)(=O)c1ccc(-c2ccc(C)cc2)s1 | 31.6
COc1ccc(NS(=O)(=O)c2ccc(N3CCCC3=O)cc2)cc1N1C[C@@H](C)N[C@@H](C)C1 | 79.4
COc1ccc(NS(=O)(=O)c2ccc(-c3ccc(C)s3)s2)cc1N1C[C@@H](C)N[C@@H](C)C1 | 1.58
C[C@@H]1CN(c2cccc(NS(=O)(=O)c3ccc(-c4ccc(Cl)s4)cc3)c2)C[C@H](C)N1 | 25.1
C[C@@H]1CN(c2ccc(Cl)c(NS(=O)(=O)c3ccc(-c4ccco4)cc3)c2)C[C@H](C)N1 | 1.58
Cc1ccc(-c2ccc(S(=O)(=O)Nc3cc(N4C[C@@H](C)N[C@@H](C)C4)ccc3O)cc2)o1 | 5.01
COc1ccc(N2C[C@@H](C)N[C@@H](C)C2)cc1NS(=O)(=O)c1ccc(-c2cccc(C)n2)cc1C | 6.31
COc1ccc(N2C[C@@H](C)N[C@@H](C)C2)cc1NS(=O)(=O)c1ccc(-c2cccnc2)s1 | 100
COc1ccc(N2C[C@@H](C)N[C@@H](C)C2)cc1NS(=O)(=O)c1ccc(-c2cnco2)cc1 | 50.1
COc1ccc(N2C[C@@H](C)N[C@@H](C)C2)cc1NS(=O)(=O)c1cccc(-c2cccs2)c1 | 15.8
C[C@@H]1CN(c2ccc(F)c(NS(=O)(=O)c3ccc(-c4cccs4)cc3F)c2)C[C@H](C)N1 | 20

Compound | EC50 [nM]
COc1ccc(N2C[C@@H](C)N[C@@H](C)C2)cc1NS(=O)(=O)c1ccc(-c2ccc(C)s2)s1 | 25.1
COc1ccc(N2C[C@@H](C)N[C@@H](C)C2)cc1NS(=O)(=O)c1ccc(-c2ccsc2)cc1C | 5.01
COc1ccc(N2C[C@@H](C)N[C@@H](C)C2)cc1NS(=O)(=O)c1ccc(-c2csc(C)c2)cc1F | 2.51
COc1ccc(NS(=O)(=O)c2ccc(-c3ccsc3)cc2)cc1N1C[C@@H](C)N[C@@H](C)C1 | 2.51
COc1ccc(N2C[C@@H](C)N[C@@H](C)C2)cc1NS(=O)(=O)c1ccc(-c2ccc(Cl)s2)cc1 | 12.6
COc1ccc(N2C[C@@H](C)N[C@@H](C)C2)cc1NS(=O)(=O)c1ccc(-c2csc(C)n2)s1 | 39.8
COc1ccc(N2C[C@@H](C)N[C@@H](C)C2)cc1NS(=O)(=O)c1ccc(-c2ccsc2)c(C)c1 | 7.94
COc1ccc(N2C[C@@H](C)N[C@@H](C)C2)nc1NS(=O)(=O)c1ccc(-c2ccoc2)cc1Cl | 25.1
Cc1ccc(-c2ccc(S(=O)(=O)Nc3ccnc(N4C[C@@H](C)N[C@@H](C)C4)n3)cc2F)o1 | 31.6
COc1ccc(NS(=O)(=O)c2ccc(-c3ccsc3)s2)cc1N1C[C@@H](C)N[C@@H](C)C1 | 1.58
CCOc1ccc(N2C[C@@H](C)N[C@@H](C)C2)cc1NS(=O)(=O)c1ccc(-c2cccs2)cc1 | 12.6
COc1ccc(N2C[C@@H](C)N[C@@H](C)C2)cc1NS(=O)(=O)c1ccc(-c2ccco2)cc1Cl | 0.501
COc1ccc(N2C[C@@H](C)N[C@@H](C)C2)cc1NS(=O)(=O)c1ccc(-c2cc(C)cs2)nc1 | 10
COc1ccc(N2C[C@@H](C)N[C@@H](C)C2)cc1NS(=O)(=O)c1cccc(Cl)c1Cl | 15.8
CC(C)Oc1ccc(N2C[C@@H](C)N[C@@H](C)C2)cc1NS(=O)(=O)c1ccc(-c2cccs2)cc1 | 15.8
COc1ccc(N2C[C@@H](C)N[C@@H](C)C2)cc1NS(=O)(=O)c1ccc(-c2cccs2)nc1 | 50.1
COc1ccc(NS(=O)(=O)c2ccc(-c3ccccc3C)s2)cc1N1C[C@@H](C)N[C@@H](C)C1 | 50.1
COc1ccc(N2CCN[C@H](C)C2)cc1NS(=O)(=O)c1ccc(-c2cccs2)cc1 | 31.6
COc1ccc(N2C[C@@H](C)N[C@@H](C)C2)cc1NS(=O)(=O)c1ccc(-c2ncccn2)cc1 | 12.6
COc1ccc(NS(=O)(=O)c2ccc(-n3cccn3)cc2)cc1N1C[C@@H](C)N[C@@H](C)C1 | 6.31
Cc1ccc(N2C[C@@H](C)N[C@@H](C)C2)cc1NS(=O)(=O)c1ccc(-c2cccs2)cc1 | 3.98

Compound | EC50 [nM]
C[C@@H]1CN(c2ccc(O)c(NS(=O)(=O)c3ccc(-c4ccccn4)s3)c2)C[C@H](C)N1 | 25.1
COc1ccc(N2C[C@@H](C)N[C@@H](C)C2)cc1NS(=O)(=O)c1ccc2c(Cl)cccc2c1 | 1.58
COc1ccc(N2C[C@@H](C)N[C@@H](C)C2)cc1NS(=O)(=O)c1ccc(-c2ccoc2)cc1 | 7.94
COc1ccc(N2C[C@@H](C)N[C@@H](C)C2)cc1NS(=O)(=O)c1ccc(Cl)c2ccccc12 | 50.1
COc1ccc(N2C[C@@H](C)N[C@@H](C)C2)cc1NS(=O)(=O)c1ccc(-c2cccc(F)c2)s1 | 31.6
COc1ccc(N2C[C@@H](C)N[C@@H](C)C2)cc1NS(=O)(=O)c1ccc(-c2cc(C)cs2)cc1F | 0.501
COc1ccc(N2CCN[C@@H](C)C2)cc1NS(=O)(=O)c1ccc(-c2cccs2)cc1 | 158
COc1ccc(N2C[C@@H](C)N[C@@H](C)C2)cc1NS(=O)(=O)c1ccc(Br)s1 | 126
COc1cc(Br)ccc1S(=O)(=O)Nc1cc(N2C[C@@H](C)N[C@@H](C)C2)ccc1F | 100
COc1ccc(NS(=O)(=O)c2ccc(Cl)c(Cl)c2)cc1N1C[C@@H](C)N[C@@H](C)C1 | 63.1
COc1ccc(NS(=O)(=O)c2sc3ccc(Cl)cc3c2C)cc1N1C[C@@H](C)N[C@@H](C)C1 | 31.6
COc1ccc(NS(=O)(=O)c2ccc(-c3ccoc3)s2)cc1N1C[C@@H](C)N[C@@H](C)C1 | 12.6
COc1ccc(N2C[C@@H](C)N[C@@H](C)C2)cc1NS(=O)(=O)c1ccc(-c2cccnc2)cc1 | 100
COc1ccc(N2C[C@@H](C)N[C@@H](C)C2)cc1NS(=O)(=O)c1ccc(-c2cccc(C)n2)c(F)c1 | 79.4
COc1ccc(NS(=O)(=O)c2ccc(-c3cccc(C)c3)s2)cc1N1C[C@@H](C)N[C@@H](C)C1 | 3.98
C[C@@H]1CN(c2ccc(F)c(NS(=O)(=O)c3ccc(-c4ccoc4)cc3Cl)c2)C[C@H](C)N1 | 20
Cc1ccc(N2C[C@@H](C)N[C@@H](C)C2)cc1NS(=O)(=O)c1ccc(Br)cc1 | 100
C[C@@H]1CN(c2ccc(O)c(NS(=O)(=O)c3ccc(-c4ccco4)cc3)c2)C[C@H](C)N1 | 15.8
C[C@@H]1CN(c2ccc(F)c(NS(=O)(=O)c3ccc(-c4ccoc4)c(F)c3)c2)C[C@H](C)N1 | 15.8
Cc1cc(S(=O)(=O)Nc2cc(N3C[C@@H](C)N[C@@H](C)C3)ccc2F)ccc1Br | 63.1
COc1ccc(NS(=O)(=O)c2ccc(Br)cc2C)cc1N1C[C@@H](C)N[C@@H](C)C1 | 39.8

Compound | EC50 [nM]
COc1ccc(NS(=O)(=O)c2ccc(-c3cccc(C)n3)s2)cc1N1C[C@@H](C)N[C@@H](C)C1 | 0.631
COc1ccc(N2C[C@@H](C)N[C@@H](C)C2)cc1NS(=O)(=O)c1ccc(-c2csnn2)s1 | 25.1
COc1cc(-c2cc(C)cs2)ccc1S(=O)(=O)Nc1cccc(N2C[C@@H](C)N[C@@H](C)C2)c1 | 6.31
COc1ccc(N2C[C@@H](C)N[C@@H](C)C2)cc1NS(=O)(=O)c1ccc(-c2ccco2)cc1C | 2
COc1ccc(NS(=O)(=O)c2ccc(-c3ccoc3)cc2)cc1N1C[C@@H](C)N[C@@H](C)C1 | 12.6
COc1ncc(N2C[C@@H](C)N[C@@H](C)C2)cc1NS(=O)(=O)c1ccc(-c2ccc(C)o2)c(F)c1 | 63.1
COc1ccc(N2C[C@@H](C)N[C@@H](C)C2)cc1NS(=O)(=O)c1ccc(-c2ccc(C)s2)c(F)c1 | 3.98
COc1ccc(N2C[C@@H](C)N[C@@H](C)C2)cc1NS(=O)(=O)c1ccc(-c2cccc(C)n2)s1 | 10
COc1ccc(N2C[C@@H](C)N[C@@H](C)C2)cc1NS(=O)(=O)c1cc(C)c(-c2ccccc2F)s1 | 63.1
COc1ccc(N2C[C@@H](C)N[C@@H](C)C2)cc1NS(=O)(=O)c1ccc(-c2ccc(C)s2)cc1F | 3.98
C[C@@H]1CN(c2cccc(NS(=O)(=O)c3cc4ccccc4s3)c2)C[C@H](C)N1 | 31.6
COc1ccc(NS(=O)(=O)c2ccc(-c3ccc(F)cc3)s2)cc1N1C[C@@H](C)N[C@@H](C)C1 | 100
COc1ccc(N2C[C@@H](C)N[C@@H](C)C2)cc1NS(=O)(=O)c1ccc(-c2ccsc2)cc1Cl | 3.16
COc1ccc(NS(=O)(=O)c2ccc(-c3cccc(F)c3F)cc2)cc1N1C[C@@H](C)N[C@@H](C)C1 | 31.6
COc1cc(-c2cccs2)ccc1S(=O)(=O)Nc1cccc(N2C[C@@H](C)N[C@@H](C)C2)c1 | 20
COc1ccc(N2C[C@@H](C)N[C@@H](C)C2)cc1NS(=O)(=O)c1cc2cc(Cl)ccc2s1 | 25.1
COc1ccc(N2C[C@@H](C)N[C@@H](C)C2)cc1NS(=O)(=O)c1ccc(-c2cnccc2OC)s1 | 31.6
COc1ccc(NS(=O)(=O)c2ccc(-c3cccs3)cc2F)cc1N1C[C@@H](C)N[C@@H](C)C1 | 2.51
COc1ccc(NS(=O)(=O)c2ccc(-c3cnco3)cc2)cc1N1C[C@@H](C)N[C@@H](C)C1 | 39.8
COc1ccc(N2C[C@@H](C)N[C@@H](C)C2)cc1NS(=O)(=O)c1ccc(-c2ccc(C)o2)nc1 | 7.94
COc1ccc(N2C[C@@H](C)N[C@@H](C)C2)cc1NS(=O)(=O)c1cccc(-c2cc(C)cs2)c1 | 50.1
